Assay results taken from ChEMBL document CHEMBL5665440, “ASAP - In vitro liver microsomal stability” (2024).

Assay: Human liver microsomal stability of compound in microsomal protein, PBS buffer pH 7.4, NADPH, glucose-6-phosphate and glucose-6-phosphate dehydrogenase media. Aliquotes were taken at 5 time points and after stopping the reaction, supernatants were analyzed using HPLC coupled with a tandem mass spectrometer. The elimination constant, half-life, and intrinsic clearance are determined as results using linear regression analysis.
Type: ADME, microsomes, Microsome
Settings: for half-life / microsomal CLint: liver microsomes; for Remaining / Remaining (without cofactor): microsomes
For Remaining (without cofactor) in this document: time not given here.
For Remaining in this document: time not given here.

| half-life | microsomal CLint | Remaining | Remaining (without cofactor) | SMILES |
| --- | --- | --- | --- | --- |
| 1.59 h | 17.5 µL/min/mg | 76.258% | 74.637% | NCCc1ccc(NC(=O)c2cc(Cl)cc(NC(=O)OCc3ccccc3)c2)cc1 |
| 1.31 h | 21.3 µL/min/mg | 70.065% | 102.307% | CNC(=O)[C@H](Nc1cc(Cl)cc(NC(=O)OCc2ccccc2)c1)c1cccc(-c2nn[nH]n2)c1 |
| > 2.89 h | < 10 µL/min/mg | 98.893% | 98.069% | Clc1ccc2[nH]cc(Cc3ccc(-c4nn[nH]n4)cc3)c2c1 |
| > 2.89 h | < 10 µL/min/mg | 92.268% | 98.779% | O=C(Nc1cc(Cl)cc(-c2ccc3[nH]c(C(=O)O)cc3c2)c1)OCc1ccccc1 |
| 2.04 h | 13.6 µL/min/mg | 82.243% | 110.789% | N#C[C@H](Nc1cccc(-c2nn[nH]n2)c1)c1cc(Cl)cc(NC(=O)OCc2ccccc2)c1 |
| > 2.89 h | < 10 µL/min/mg | 101.28% | 99.543% | CC(C)c1nc2c(C(=O)Nc3cccc(CN)c3)cccc2[nH]1 |
| > 2.89 h | < 10 µL/min/mg | 91.016% | 98.201% | O=C(Nc1cc(Cl)cc(C(=O)Nc2cccc(C3CCNCC3)c2)c1)OCc1ccccc1 |
| > 2.89 h | < 10 µL/min/mg | 98.4% | 103.999% | CNC(=O)[C@H](Nc1cc(CN)cc(C(=O)O)c1)c1cc(Cl)cc(C2CC2)c1 |
| 2.44 h | 11.4 µL/min/mg | 87.168% | 92.769% | NCc1cccc([C@@H]2C[C@H]2c2cc(Cl)cc(NC(=O)OCc3ccccc3)c2)c1 |
| > 2.89 h | < 10 µL/min/mg | 93.548% | 99.519% | O=C(Nc1cc(Cl)cc([C@H](Nc2cccc(-c3nn[nH]n3)c2)C(=O)NCc2ccccc2)c1)OCc1ccccc1 |
| > 2.89 h | < 10 µL/min/mg | 90.289% | 100.18% | CNC(=O)[C@H](Nc1ccc(-c2nnn[nH]2)cc1)c1cc(Cl)cc(C2CC2)c1 |
| 1.12 h | 24.9 µL/min/mg | 66.587% | 100.68% | CC[C@@H](Cc1nnn[nH]1)c1ccc(NC(=O)c2cc(Cl)cc(NC(=O)OCc3ccccc3)c2)cc1 |
| > 2.89 h | < 10 µL/min/mg | 88.403% | 97.11% | Cc1ccc(NC(=O)c2cc(Cl)cc(NC(=O)OCc3ccccc3)c2)cc1CN |
| 0.413 h | 67.4 µL/min/mg | 33.369% | 97.65% | O=C(O)c1cc(Cl)c(F)cc1S(=O)(=O)Nc1ccc(Oc2ccccc2Cl)cc1 |
| 0.89 h | 31.3 µL/min/mg | 58.639% | 103.638% | O=C(N[C@H]1[C@H]2CCCCC[C@H]2[C@H]1C(=O)Nc1cccc(C2CCNCC2)c1)OCc1ccccc1 |
| 1.64 h | 17 µL/min/mg | 76.547% | 105.768% | NCc1cccc(NC(=O)C[C@@H](NC(=O)OCc2ccccc2)c2ccc(OCc3ccccc3)cc2)c1 |
| 0.14 h | 198 µL/min/mg | 4% | 98% | CC(C)CNC(=O)c1cc(Cl)c(F)cc1NS(=O)(=O)c1ccc(Oc2ccccc2Cl)cc1 |
| 2.19 h | 12.7 µL/min/mg | 81.215% | 98.946% | O=C(Nc1cc(Cl)cc(C(=O)Nc2ccc3c(c2)CNC3)c1)OCc1ccccc1 |

| half-life | microsomal CLint | Remaining | Remaining (without cofactor) | SMILES |
| --- | --- | --- | --- | --- |
| 2.48 h | 11.2 µL/min/mg | 81.771% | 105.363% | O=C(Nc1cc(Cl)cc(C(=O)Nc2cccc(-n3nn[nH]c3=O)c2)c1)OCc1ccccc1 |
| > 2.89 h | < 10 µL/min/mg | 98.243% | 100.684% | NCc1cccc(NC(=O)c2cccn3cc(CN4CCCC4)nc23)c1 |
| > 2.89 h | < 10 µL/min/mg | 101.103% | 100.106% | O=C(O)Cn1ncc2cc(-c3cc(Cl)cc(NC(=O)OCc4ccccc4)c3)ccc21 |
| 0.4 h | 70 µL/min/mg | 33% | 104% | O=C(NCC(F)(F)F)c1cc(Cl)c(F)cc1NS(=O)(=O)c1ccc(Oc2ccccc2Cl)cc1 |
| > 2.89 h | < 10 µL/min/mg | 89.704% | 102.436% | NCc1cc(C(=O)O)cc([C@@H]2C[C@H]2c2cc(Cl)cc(NC(=O)OCc3ccccc3)c2)c1 |
| 2.21 h | 12.6 µL/min/mg | 77.895% | 94.537% | NCc1cccc(NC(=O)[C@@H](NC(=O)OCc2ccccc2)C(C2CCC2)C2CCC2)c1 |
| 0.73 h | 38.1 µL/min/mg | 53.75% | 101.907% | c1ccc2sc(C3CCN(Cc4c[nH]c5ccccc45)CC3)nc2c1 |
| 0.0813 h | 343 µL/min/mg | 0.295% | 109.106% | O=C(O)c1cc(Cl)ccc1NS(=O)(=O)c1ccc(-c2ccccc2Cl)cc1 |
| > 2.89 h | < 10 µL/min/mg | 89.541% | 103.012% | OCC#C[C@H](Nc1ccc2c(c1)CNC2)c1cc(Cl)cc2[nH]ncc12 |
| 0.425 h | 65.5 µL/min/mg | 34.146% | 93.066% | C=CC[C@H](Nc1cccc(-c2nn[nH]n2)c1)c1cc(Cl)cc(NC(=O)OCc2ccccc2)c1 |
| 2.33 h | 12 µL/min/mg | 81.554% | 89.628% | N#C[C@H](Nc1cccc(C(=O)O)c1)c1cc(Cl)cc2[nH]ncc12 |
| 5.26 h | 5.29 µL/min/mg | 90.368% | 108.836% | NCc1cccc(NC(=O)[C@@H](NC(=O)OCc2ccccc2)C2CCCCC2)c1 |
| 1.33 h | 21 µL/min/mg | 124.297% | 104.813% | NCc1cccc(NC(=O)c2cc(Cl)cc(CN)c2)c1 |
| 2.77 h | 10.1 µL/min/mg | 84.591% | 100.465% | C=CC[C@H](Nc1ccc(-c2nn[nH]n2)cc1)c1cc(Cl)cc(NC(=O)OCc2ccccc2)c1 |
| 0.233 h | 119 µL/min/mg | 15.029% | 93.83% | CCOc1cccc(-c2ccc(S(=O)(=O)Nc3ccc(Cl)cc3C(=O)O)cc2)c1 |
| 1.69 h | 16 µL/min/mg | 78.186% | 103.226% | c1ccc2c(CN3CCC(c4c[nH]c5cccnc45)CC3)c[nH]c2c1 |
| > 2.89 h | < 10 µL/min/mg | 97.01% | 105.868% | CNC(=O)[C@H](Nc1cccc(-c2nn[nH]n2)c1)c1cc(Cl)cc2[nH]ncc12 |
